Experimental data published in US10703764B2, “Benzopiperazine compositions as BET bromodomain inhibitors” (FORMA Therapeutics, Inc., priority 2013, dated 2020).

Legend:
BRD4 BD2 = biological target: T1, BRD4 BD2 (Homo sapiens, UniProt O60885); experiment: AlphaScreen binding assay, BRD4 Bromodomain 2
T1 construct: made in house
Method in brief: (§1)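 Compound dilution series were mixed with His-tagged BRD4 bromodomain and biotinylated tetra-acetylated H4 (1-21) peptide at pH 7.3 (BD1 and peptide at 50 nM, BD2 and peptide at 100 nM). Donor and acceptor beads were then added, and plates were equilibrated at least 1 h before reading. IC50 values were fitted with a four-parameter logistic model.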

BRD4 BD1 = biological target: T2, BRD4 BD1 (Homo sapiens, UniProt O60885); experiment: AlphaScreen binding assay, BRD4 Bromodomain 1
T2 construct: made in house
Method in brief: as §1

SMILES	IC50 (BRD4 BD2) [nM]	IC50 (BRD4 BD1) [nM]
CC(=O)N1c2ccc(-c3cccc(-c4noc(C)n4)c3)cc2N(C(=O)c2ccco2)C[C@@H]1C [Example I-402]	< 50	1000 to 10000
CC(=O)N1c2ccc(-c3nnc(C)s3)cc2N(C(=O)c2ccco2)C[C@@H]1C [Example I-403]	50 to 500	1000 to 10000
CC(=O)N1c2ccc(-c3ccc4nn(C)cc4c3)cc2N(C(=O)c2ccco2)C[C@@H]1C [Example I-404]	50 to 500	1000 to 10000
CC(=O)N1c2ccc(-c3cccc(-c4ncccn4)c3)cc2N(C(=O)c2ccco2)C[C@@H]1C [Example I-405]	50 to 500	1000 to 10000
CC(=O)N1c2ccc(-c3ccn4ccnc4n3)cc2N(C(=O)c2ccco2)C[C@@H]1C [Example I-406]	> 500	> 10000
CC(=O)N1c2ccc(C(=O)c3ccccc3)cc2N(C(=O)c2ccco2)C[C@@H]1C [Example I-408]	> 500	1000 to 10000
CC(=O)N1c2ccc(-c3ccc(=O)n(C)c3)cc2N(C(=O)c2ccco2)C[C@@H]1C [Example I-411]	50 to 500	1000 to 10000
CC(=O)N1c2ccc(-c3ccc(-c4nnco4)cc3)cc2N(C(=O)c2ccco2)C[C@@H]1C [Example I-416]	< 50	1000 to 10000
CC(=O)N1c2ccc(-c3ccc(CS(N)(=O)=O)cc3)cc2N(C(=O)c2ccco2)C[C@@H]1C [Example I-418]	< 50	1000 to 10000
CC(=O)N1c2ccc(-c3cnn(C)n3)cc2N(C(=O)c2ccco2)C[C@@H]1C [Example I-419]	> 500	100 to 1000
CC(=O)N1c2ccc(-c3ccc(-c4cc(C(=O)O)[nH]n4)cc3)cc2N(C(=O)c2ccco2)CC1C (stereo not drawn) [Example I-421]	< 50	100 to 1000
CC(=O)N1c2ccc(-c3ccc(N4CCCS4(=O)=O)cc3)cc2N(C(=O)c2ccco2)C[C@@H]1C [Example I-424]	< 50	100 to 1000
CC(=O)N1c2ccc(-c3ncc(N)s3)cc2N(C(=O)c2ccco2)C[C@@H]1C [Example I-431]	> 500	> 10000
CC(=O)N1c2ccc(-c3cnsc3)cc2N(C(=O)c2ccco2)C[C@@H]1C [Example I-432]	50 to 500	100 to 1000
CC(=O)N1c2ccc(-c3ccc(S(=O)(=O)CC(=O)N(C)C)cc3)cc2N(C(=O)c2ccco2)C[C@@H]1C [Example I-433]	50 to 500	100 to 1000
CC(=O)N1c2ccc(-c3ccns3)cc2N(C(=O)c2ccco2)C[C@@H]1C [Example I-434]	50 to 500	1000 to 10000
C[C@H]1CN(C(=O)C2CC2)c2cc(-c3ccc(N4CCCS4(=O)=O)cc3)ccc2N1C(=O)C1CC1 [Example I-440]	50 to 500	100 to 1000
CC(=O)N1c2ccc(-c3cnc(N)cn3)cc2N(C(=O)C2CC2)C[C@@H]1C [Example I-441]	50 to 500	100 to 1000
C[C@H]1CN(C(=O)C2CC2)c2cc(-c3cnc(N)cn3)ccc2N1C(=O)C1CC1 [Example I-442]	50 to 500	1000 to 10000

SMILES	IC50 (BRD4 BD2) [nM]	IC50 (BRD4 BD1) [nM]
C[C@H]1CN(C(=O)C2CC2)c2cc(-c3ccc(C4(O)COC4)cc3)ccc2N1C(=O)C1CC1 [Example I-444]	50 to 500	100 to 1000
C[C@H]1CN(C(=O)C2CC2)c2cc(-c3ccc(CS(N)(=O)=O)cc3)ccc2N1C(=O)C1CC1 [Example I-446]	50 to 500	100 to 1000
C[C@H]1CN(C(=O)C2CC2)c2cc(-c3ccc(S(=O)(=O)CCN)cc3)ccc2N1C(=O)C1CC1 [Example I-448]	< 50	100 to 1000
C[C@H]1CN(C(=O)C2CC2)c2cc(-c3ccc(S(=O)(=O)CCO)cc3)ccc2N1C(=O)C1CC1 [Example I-450]	50 to 500	1000 to 10000
CC(=O)N1c2ccc(-c3ccc(C(=O)NCCN)cc3)cc2N(C(=O)C2CC2)C[C@@H]1C [Example I-451]	50 to 500	100 to 1000
C[C@H]1CN(C(=O)C2CC2)c2cc(-c3ccc(C(=O)NCCN)cc3)ccc2N1C(=O)C1CC1 [Example I-452]	50 to 500	1000 to 10000
CC(=O)N1c2ccc(-c3cn(C)nn3)cc2N(C(=O)C2CC2)C[C@@H]1C [Example I-453]	50 to 500	1000 to 10000
C[C@H]1CN(C(=O)C2CC2)c2cc(-c3cn(C)nn3)ccc2N1C(=O)C1CC1 [Example I-454]	50 to 500	1000 to 10000
COC(=O)N1c2ccc(-c3ccc(N4CCCS4(=O)=O)cc3)cc2N(C(=O)C2CC2)C[C@@H]1C [Example I-457]	50 to 500	1000 to 10000
COC(=O)N1c2ccc(-c3cnc(N)cn3)cc2N(C(=O)C2CC2)C[C@@H]1C [Example I-458]	50 to 500	1000 to 10000
COC(=O)N1c2ccc(-c3ccc(C4(O)COC4)cc3)cc2N(C(=O)C2CC2)C[C@@H]1C [Example I-459]	50 to 500	1000 to 10000
COC(=O)N1c2ccc(-c3ccc(CS(N)(=O)=O)cc3)cc2N(C(=O)C2CC2)C[C@@H]1C [Example I-460]	50 to 500	1000 to 10000
COC(=O)N1c2ccc(-c3ccc(S(=O)(=O)CCN)cc3)cc2N(C(=O)C2CC2)C[C@@H]1C [Example I-461]	50 to 500	1000 to 10000
COC(=O)N1c2ccc(-c3ccc(S(=O)(=O)CCO)cc3)cc2N(C(=O)C2CC2)C[C@@H]1C [Example I-462]	50 to 500	1000 to 10000
COC(=O)N1c2ccc(-c3ccc(C(=O)NCCN)cc3)cc2N(C(=O)C2CC2)C[C@@H]1C [Example I-463]	50 to 500	1000 to 10000
COC(=O)N1c2ccc(-c3cn(C)nn3)cc2N(C(=O)C2CC2)C[C@@H]1C [Example I-464]	50 to 500	1000 to 10000
CC(C)OC(=O)N1C[C@H](C)N(C(=O)C2CC2)c2ccc(-c3ccc(C(=O)NCCN)cc3)cc21 [Example I-481]	> 500	100 to 1000
COC(=O)N1c2ccc(-c3ccc(N4CCCS4(=O)=O)cc3)cc2N(C(=O)OC(C)C)C[C@@H]1C [Example I-484]	> 500	100 to 1000
COC(=O)N1c2ccc(-c3ccc(CS(N)(=O)=O)cc3)cc2N(C(=O)OC(C)C)C[C@@H]1C [Example I-487]	> 500	100 to 1000

Second part, the compound after the results:

IC50 (BRD4 BD2) [nM]	IC50 (BRD4 BD1) [nM]	SMILES
50 to 500	100 to 1000	COC(=O)N1c2ccc(-c3ccc(S(=O)(=O)CCN)cc3)cc2N(C(=O)OC(C)C)C[C@@H]1C [Example I-488]
> 500	1000 to 10000	COC(=O)N1c2ccc(-c3ccc(C(=O)NCCN)cc3)cc2N(C(=O)OC(C)C)C[C@@H]1C [Example I-489]
50 to 500	1000 to 10000	CC(=O)N1c2ccc(-c3ncco3)cc2N(C(=O)c2ccco2)C[C@@H]1C [Example I-491]
< 50	100 to 1000	CC(=O)N1c2ccc(-c3ccc(N(C)S(C)(=O)=O)cc3)cc2N(C(=O)c2ccco2)C[C@@H]1C [Example I-492]
> 500	1000 to 10000	CC(=O)N1c2ccc(-c3ccc(S(C)(=O)=O)cc3)cc2N(C(=O)OC2COC2)C[C@@H]1C [Example I-497]
50 to 500	1000 to 10000	COc1ccc(OC(=O)N2C[C@H](C)N(C(C)=O)c3ccc(-c4cnn(C5CC5)c4)cc32)c(Cl)c1 [Example I-505]
50 to 500	1000 to 10000	CC(=O)N1c2ccc(-c3cnn(C4CC4)c3)cc2N(C(=O)Oc2cccnc2C)C[C@@H]1C [Example I-514]
50 to 500	1000 to 10000	CC(=O)N1c2ccc(-c3cnn(C4CC4)c3)cc2N(C(=O)Oc2ccc(C)cc2C)C[C@@H]1C [Example I-516]
50 to 500	1000 to 10000	CC(=O)N1c2ccc(-c3cnn(C4CC4)c3)cc2N(C(=O)Oc2cncc(C)c2)C[C@@H]1C [Example I-520]
50 to 500	1000 to 10000	CC(=O)N1c2ccc(-c3cnn(C4CC4)c3)cc2N(C(=O)Oc2cncc3ccccc23)C[C@@H]1C [Example I-525]
50 to 500	1000 to 10000	CC(=O)N1c2ccc(-c3cnn(C4CC4)c3)cc2N(C(=O)Oc2ccc(C#N)cc2Cl)C[C@@H]1C [Example I-528]
50 to 500	1000 to 10000	COc1ccc(Cl)c(OC(=O)N2C[C@H](C)N(C(C)=O)c3ccc(-c4cnn(C5CC5)c4)cc32)c1 [Example I-531]
50 to 500	1000 to 10000	CC(=O)N1c2ccc(-c3ccc(C(=O)Nc4ccccc4)cc3)cc2N(C(=O)OC(C)C)C[C@@H]1C [Example I-535]
> 500	1000 to 10000	COC(=O)N1c2ccc(-c3ccc(C(=O)NCc4ncco4)cc3)cc2N(C(=O)OC(C)C)C[C@@H]1C [Example I-583]
> 500	1000 to 10000	CC(C)OC(=O)N1C[C@H](C)N(C(=O)C2CC2)c2ccc(-c3ccc(C(=O)NCc4ncco4)cc3)cc21 [Example I-585]
50 to 500	1000 to 10000	CC(C)OC(=O)N1C[C@H](C)N(C(=O)C2CC2)c2ccc(-c3cnn(CC(=O)N(C)C4CC4)c3)cc21 [Example I-610]
> 500	1000 to 10000	CC(C)OC(=O)N1C[C@H](C)N(C(=O)C2CC2)c2ccc(-c3cnn(CCNS(C)(=O)=O)c3)cc21 [Example I-613]
50 to 500	1000 to 10000	CC(C)OC(=O)N1C[C@H](C)N(C(=O)C2CC2)c2ccc(-c3cnn(CC(=O)N4CCCCC4)c3)cc21 [Example I-614]
> 500	1000 to 10000	CC(C)OC(=O)N1C[C@H](C)N(C(=O)C2CC2)c2ccc(-c3cnn(CC#N)c3)cc21 [Example I-622]
50 to 500	1000 to 10000	COC(=O)N1c2ccc(-c3cnn(CC(=O)N4CCCCC4)c3)cc2N(C(=O)OC(C)C)C[C@@H]1C [Example I-629]
> 500	1000 to 10000	COC(=O)N1c2ccc(-c3cnn(CC4CCC4)c3)cc2N(C(=O)OC(C)C)C[C@@H]1C [Example I-635]
> 500	1000 to 10000	COC(=O)N1c2ccc(-c3cnn(CC#N)c3)cc2N(C(=O)OC(C)C)C[C@@H]1C [Example I-639]
